Key:
[1] = molecular target: T1, FE4 Myzus persicae esterases (Myzus persicae, UniProt P35502); assay: Inhibition of esterase FE4, 4-nitrophenyl acetate model substrate assay; format: biochemical; settings: purified FE4, 2.5 μL of 10 mM compound in acetone, 10 min incubation, substrate 4-nitrophenyl acetate 0.8 mM, read at 405 nm
T1 construct: would be utilised for the purified esterases from aphids; from tissue; host or cells: aphids (Myzus persicae), purified esterase
T1 sequence (P35502 24-564): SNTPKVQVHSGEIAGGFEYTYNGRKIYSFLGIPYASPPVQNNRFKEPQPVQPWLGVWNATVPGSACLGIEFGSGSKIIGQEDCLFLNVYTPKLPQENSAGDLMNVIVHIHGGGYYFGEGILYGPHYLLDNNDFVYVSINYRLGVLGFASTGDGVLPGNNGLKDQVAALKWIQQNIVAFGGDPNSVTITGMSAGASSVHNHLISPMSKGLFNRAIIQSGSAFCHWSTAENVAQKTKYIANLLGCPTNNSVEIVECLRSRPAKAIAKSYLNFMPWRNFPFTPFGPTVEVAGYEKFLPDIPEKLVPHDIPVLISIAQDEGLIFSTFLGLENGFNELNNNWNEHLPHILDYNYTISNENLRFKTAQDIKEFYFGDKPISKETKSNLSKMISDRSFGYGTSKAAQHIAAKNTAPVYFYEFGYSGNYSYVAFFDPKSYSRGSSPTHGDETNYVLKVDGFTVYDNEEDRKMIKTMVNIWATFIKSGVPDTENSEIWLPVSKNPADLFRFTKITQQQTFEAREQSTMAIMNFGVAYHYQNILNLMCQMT
Description: Inhibition of Esterasenzymes by Synergists in Myzus persicae
It was envisaged, therefore, that the ‘esterase intereference assay’ (Khot et al., 2008) would be utilised for the purified esterases from aphids. Various esterase substrates were assessed to find one suitable of monitoring inhibition in an insect homogenate. The Myzus persicae resistance associated esterase, FE4, was used.
Initially the esterase interference assay was carried out, as being the ‘absolute’ protocol for characterizing interactions between the compounds of Example 1-9 and FE4. However, since this is a protracted method, a selection of products already reported in the literature were used to compare the interference assay and the use of a model substrate.
From the literature (Philippou et al., 2013) it is known that 1-naphthyl acetate is not suitable for this assay. Instead, 4-nitrophenyl acetate was used. A 10 mM pNA stock was prepared in acetone and added to 0.02 M phosphate buffer pH 7.0 (final concentration 2 mM). The comparison was made with 6 PBO analogues of variable efficacy.
For the assay 10 μL of purified FE4 was diluted to a total volume of 50 μL by the addition of 0.02 M phosphate buffer, pH 7.0 in individual wells of a microplate (maxisorb, NUNC). To each well, 2.5 μL of 10 mM of the compound of Example 1 and of Example 2 in acetone was added and incubated for 10 mins, with acetone only used as a control. Following incubation, 100 μL of 0.02 phosphate buffer, pH 7.0 and 100 μL of 2 mM 4-nitrophenyl acetate was added (final volume in well 250 μL, final substrate concentration 0.8 mM). Enzyme activity was read at 405 nm in a Spectramax Tmax for 5 min, with readings taken every 5 secs. The rate (mOD min^−1) was calculated by the integrated software, Softmax Pro v.5.4.

Bemisia tabaci CYPCM1 = settings: recombinant enzyme 50 μL + 3 μL of 10 mM compound stock in acetone, 10 min incubation at room temperature, substrate 7-ethoxycoumarin, NADPH
Description: Ability of the compounds of the invention to inhibit oxidative enzymes (P450), a major mechanism conferring resistance to xenobiotics, was measured using recombinant enzymes corresponding to CYPCM1 from Bemisia tabaci.
Substrate used was 7-ethoxycoumarin for inhibition assays as described by Ulrich and Weber (1972) and adapted to microplate format as described by De Sousa et al. (1995).
Diluted recombinant enzyme (50 μL) was mixed with 3 μL of the above mentioned compound stock solutions, with acetone only used as a control. After 10 min incubation at room temperature, 80 μL of 0.125 mM 7- ethoxycoumarin was added, followed by 10 μL 9.6 mM NADPH (nicotinamide adenine dinucleotide phosphate) in 0.1 M sodium phosphate, pH 7.8, and O-deethylation activity monitored as above. A PBO solution (10 mM) was prepared in the same way as a comparison.

[2] = molecular target: T2, E4, a resistance-associated esterase (Myzus persicae, UniProt P35501); settings: compared with PBO; cited from earlier work
T2 sequence (P35501 24-552): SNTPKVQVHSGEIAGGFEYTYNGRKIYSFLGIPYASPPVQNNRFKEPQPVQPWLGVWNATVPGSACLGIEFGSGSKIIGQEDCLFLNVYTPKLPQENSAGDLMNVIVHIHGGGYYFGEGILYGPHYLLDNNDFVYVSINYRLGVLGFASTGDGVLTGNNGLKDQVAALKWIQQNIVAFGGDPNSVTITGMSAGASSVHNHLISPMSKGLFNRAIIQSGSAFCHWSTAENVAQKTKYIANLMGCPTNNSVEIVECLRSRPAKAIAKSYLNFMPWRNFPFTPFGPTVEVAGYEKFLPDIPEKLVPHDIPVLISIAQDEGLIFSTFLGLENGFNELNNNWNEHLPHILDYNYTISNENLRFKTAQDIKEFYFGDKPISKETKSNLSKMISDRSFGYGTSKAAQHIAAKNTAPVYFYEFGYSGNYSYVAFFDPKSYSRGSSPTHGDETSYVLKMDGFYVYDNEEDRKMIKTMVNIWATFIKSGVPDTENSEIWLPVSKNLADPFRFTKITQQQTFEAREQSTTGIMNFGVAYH

SMILES	remaining activity at 10000 µM (stock) [1]	% activity remaining (Bemisia tabaci CYPCM1)	binding affinity [2]
CC#CCOCc1cc(CCCCCC)cc2c1OCC2 [Example 2, 5-n-hexyl-7-((but-2-ynyloxy)methyl)-2,3-dihydrobenzofuran]	35.4%	27.49%	
C#CCOCc1cc(CCCCCC)cc2c1OCC2 [Example 1, 5-n-hexyl-7-((prop-2-ynyloxy)methyl)-2,3-dihydrobenzofuran]	26.2%		
C#CCOCc1cc(CCC)cc2c1OCC2 [Example 8, 5-n-propyl-7-((prop-2-ynyloxy)methyl)-2,3-dihydrobenzofuran]	23.9%	86.22%	
C#CCOCc1cc(CCCC)cc2c1OCC2 [Example 5, 5-n-butyl-7-((prop-2-ynyloxy)methyl)-2,3-dihydrobenzofuran]	18.4%	87.62%	
CC#CCOCc1cc(CCCC)cc2c1OCC2 [Example 3, 5-n-butyl-7-((but-2-ynyloxy)methyl)-2,3-dihydrobenzofuran]	19.9%	3.16%	
C#CCOc1cc(CCCCCC)cc2c1OCC2 [Example 6, 5-n-hexyl-7-(prop-2-ynyloxy)-2,3-dihydrobenzofuran]	29.8%	61.16%	
CC#CCOc1ccc2c(c1)OCC2 [EN16-18, 6-(but-2-ynyloxy)-2,3-dihydrobenzofuran]			comparable with PBO
CC#CCOc1cc(CCCCCC)cc2c1OCC2 [Example 4, 5-n-hexyl-7-(but-2-ynyloxy)-2,3-dihydrobenzofuran]	24%	39.22%	
CC#CCOCc1cc(CCC)cc2c1OCC2 [Example 7, 5-n-propyl-7-((but-2-ynyloxy)methyl)-2,3-dihydrobenzofuran]	19.9%	17.92%	

Source: patent publication US10412961B2, “Substituted 2,3-dihydrobenzofuran compounds and their use as synergists” (Endura SPA, priority 2015, dated 2019)
